Experimental data taken from patent US20090263830A1, “VISUALIZATION AND QUANTITIATION OF CELLULAR CYTOTOXICITY USING CELL-PERMEABLE FLUOROGENIC PROTEASE SUBSTRATES AND CASPASE ACTIVITY INDICATOR MARKERS” (Oncoimmunin, Inc., priority 2002, published 2009).

Key:
Jurkat cells = test: Cellular cytotoxicity assay using various apoptosis/caspase activity markers and protease indicators; format: cell-based, human; conditions: indicator used for read-out, E:T 5 to 1
EL4 cells = test: Flow-cytometry fluorescence cellular cytotoxicity (FCC) assay, CTL killing of peptide-pulsed target cells; format: cell-based, mouse

| Molecule | % Killing (Jurkat cells; co-incubation 1 hr) | % Killing (Jurkat cells; co-incubation 1 hr, listed as bis-(Z-DEVDamide)-Rhodamine 110) | % Killing (Jurkat cells; co-incubation 2 hr) | % of the target cells (CTO+) positive for DEVDase activity (EL4 cells) | % Killing (Jurkat cells; co-incubation 1 hr, listed as phycoerythine (PE) labeled annexin V) |
| --- | --- | --- | --- | --- | --- |
| Bis-(N-CBZ-aspartyl-glutamyl-valyl-aspartylamide) Rhodamine 110 [Bis-(N-CBZ-DEVD amide)R22120] | 48.0% | markedly lower than the other two protease indicators | 75.4% | – | – |
| MT246-256: irrelevant control polyoma virus peptide middle T protein epitope (SNPTYSVM, SEQ ID NO:22) (Synthetic peptide substrate.) | – | – | – | around 10% | – |
| PE-labeled Annexin V: phycoerythrin labeled annexin V, cell surface marker of apoptosis (protein, UniProt P08758 2-320, looked up, phycoerythrin label, phycoerythrin labeled annexin V, cell surface marker of apoptosis) Annexin A5: AQVLRGTVTDFPGFDERADAETLRKAMKGLGTDEESILTLLTSRSNAQRQEISAAFKTLFGRDLLDDLKSELTGKFEKLIVALMKPSRLYDAYELKHALKGAGTNEKVLTEIIASRTPEELRAIKQVYEEEYGSSLEDDVVGDTSGYYQRMLVVLLQANRDPDAGIDEAQVEQDAQALFQAGELKWGTDEEKFITIFGTRSVSHLRKVFDKYMTISGFQIEETIDRETSGNLEQLLLAVVKSIRSIPAYLAETLYYAMKGAGTDDHTLIRVMVSRSEIDLFNIRKEFRKNFATSLYSMIKGDTSGDYKKALLLLCGEDD | 65.6% | – | – | – | 65.5% |
